# Data from PubChem BioAssay (NCI).
#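 Cultured in 96-well plates, cells were exposed to test compound for 48 hours across five concentrations. GI50 is the concentration that inhibits growth by half. TGI: concentration producing complete growth inhibition.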
# Tests used:
# Test in all cases: NCI anticancer screen, dose series, 48 h
# TK-10 renal = test system: TK-10 renal
# HCC-2998 colon = test system: HCC-2998 colon
# OVCAR-4 ovarian = test system: OVCAR-4 ovarian
# NCI-H23 lung = test system: NCI-H23 lung
# UACC-62 melanoma = test system: UACC-62 melanoma
# A498 renal = test system: A498 renal
# SK-MEL-28 melanoma = test system: SK-MEL-28 melanoma
# SK-MEL-5 melanoma = test system: SK-MEL-5 melanoma
# OVCAR-3 ovarian = test system: OVCAR-3 ovarian
# UO-31 renal = test system: UO-31 renal
# SK-MEL-2 melanoma = test system: SK-MEL-2 melanoma
# OVCAR-8 ovarian = test system: OVCAR-8 ovarian
# CCRF-CEM leukemia = test system: CCRF-CEM leukemia
# ACHN renal = test system: ACHN renal
# NCI-H226 lung = test system: NCI-H226 lung
# SNB-19 CNS = test system: SNB-19 CNS
# K-562 leukemia = test system: K-562 leukemia
# HCT-15 colon = test system: HCT-15 colon
# MOLT-4 leukemia = test system: MOLT-4 leukemia
# HOP-62 NSCLC = test system: HOP-62 NSCLC
# SN12C renal = test system: SN12C renal
# RPMI-8226 leukemia = test system: RPMI-8226 leukemia
# RXF 393 renal = test system: RXF 393 renal
# LOX IMVI melanoma = test system: LOX IMVI melanoma
# MDA-MB-468 breast = test system: MDA-MB-468 breast
# HS 578T breast = test system: HS 578T breast
# NCI/ADR-RES ovarian = test system: NCI/ADR-RES ovarian
# NCI-H522 lung = test system: NCI-H522 lung
# MDA-MB-231 breast = test system: MDA-MB-231 breast
# HL-60(TB) leukemia = test system: HL-60(TB) leukemia
# PC-3 prostate = test system: PC-3 prostate
# SF-268 CNS = test system: SF-268 CNS
# IGROV1 ovarian = test system: IGROV1 ovarian
# A549 NSCLC = test system: A549 NSCLC
# T-47D breast = test system: T-47D breast
# SK-OV-3 ovarian = test system: SK-OV-3 ovarian
# U251 CNS = test system: U251 CNS
# BT-549 breast = test system: BT-549 breast
# MALME-3M melanoma = test system: MALME-3M melanoma
# HCT-116 colon = test system: HCT-116 colon
# MDA-MB-435 = test system: MDA-MB-435
# EKVX NSCLC = test system: EKVX NSCLC
# CAKI-1 renal = test system: CAKI-1 renal
# NCI-H460 lung = test system: NCI-H460 lung
# SW-620 colon = test system: SW-620 colon
# M14 melanoma = test system: M14 melanoma
# HT29 colon = test system: HT29 colon
# MCF7 breast = test system: MCF7 breast
# 786-0 renal = test system: 786-0 renal
# UACC-257 melanoma = test system: UACC-257 melanoma
# SR leukemia = test system: SR leukemia
# SF-539 CNS = test system: SF-539 CNS
# OVCAR-5 ovarian = test system: OVCAR-5 ovarian
# SF-295 CNS = test system: SF-295 CNS
# COLO 205 colon = test system: COLO 205 colon
# DU-145 prostate = test system: DU-145 prostate
# KM12 colon = test system: KM12 colon
smiles,measurement,setting,value
Cc1ccc2nc3c(nc2c1)c1cc(I)ccc1n3CCN(C)C,GI50,TK-10 renal,13.8 µM
same,TGI,TK-10 renal,27.8 µM
same,GI50,HCC-2998 colon,3.81 µM
same,TGI,HCC-2998 colon,15.3 µM
same,GI50,OVCAR-4 ovarian,6.19 µM
same,TGI,OVCAR-4 ovarian,20.7 µM
same,GI50,NCI-H23 lung,6.07 µM
same,TGI,NCI-H23 lung,19.6 µM
same,GI50,UACC-62 melanoma,11.7 µM
same,TGI,UACC-62 melanoma,24 µM
same,GI50,A498 renal,14.2 µM
same,TGI,A498 renal,29.3 µM
same,GI50,SK-MEL-28 melanoma,13.8 µM
same,TGI,SK-MEL-28 melanoma,26.7 µM
same,GI50,SK-MEL-5 melanoma,12.1 µM
same,TGI,SK-MEL-5 melanoma,25.2 µM
same,GI50,OVCAR-3 ovarian,5.63 µM
same,TGI,OVCAR-3 ovarian,18.7 µM
same,GI50,UO-31 renal,1.92 µM
same,TGI,UO-31 renal,15.8 µM
same,GI50,SK-MEL-2 melanoma,13.2 µM
same,TGI,SK-MEL-2 melanoma,26.4 µM
same,GI50,OVCAR-8 ovarian,3.72 µM
same,TGI,OVCAR-8 ovarian,15.2 µM
same,GI50,CCRF-CEM leukemia,12.6 µM
same,TGI,CCRF-CEM leukemia,28.7 µM
same,GI50,ACHN renal,3.05 µM
same,TGI,ACHN renal,13.2 µM
same,GI50,NCI-H226 lung,5.98 µM
same,TGI,NCI-H226 lung,23.4 µM
same,GI50,SNB-19 CNS,9.48 µM
same,TGI,SNB-19 CNS,21.4 µM
same,GI50,K-562 leukemia,4.06 µM
same,TGI,K-562 leukemia,18.8 µM
same,GI50,HCT-15 colon,3.14 µM
same,TGI,HCT-15 colon,12.9 µM
same,GI50,MOLT-4 leukemia,7.02 µM
same,TGI,MOLT-4 leukemia,24.8 µM
same,GI50,HOP-62 NSCLC,4.81 µM
same,TGI,HOP-62 NSCLC,20.5 µM
same,GI50,SN12C renal,3.92 µM
same,TGI,SN12C renal,15.5 µM
same,GI50,RPMI-8226 leukemia,7.59 µM
same,TGI,RPMI-8226 leukemia,25.4 µM
same,GI50,RXF 393 renal,4.24 µM
same,TGI,RXF 393 renal,15.7 µM
same,GI50,LOX IMVI melanoma,3.72 µM
same,TGI,LOX IMVI melanoma,14.4 µM
same,GI50,MDA-MB-468 breast,4.12 µM
same,TGI,MDA-MB-468 breast,17.3 µM
same,GI50,HS 578T breast,12.5 µM
same,TGI,HS 578T breast,34.3 µM
same,GI50,NCI/ADR-RES ovarian,4.67 µM
same,TGI,NCI/ADR-RES ovarian,18.4 µM
same,GI50,NCI-H522 lung,4.64 µM
same,TGI,NCI-H522 lung,18.5 µM
same,GI50,MDA-MB-231 breast,4.25 µM
same,TGI,MDA-MB-231 breast,18 µM
same,GI50,HL-60(TB) leukemia,3.16 µM
same,TGI,HL-60(TB) leukemia,20.5 µM
same,GI50,PC-3 prostate,3.84 µM
same,TGI,PC-3 prostate,17.5 µM
same,GI50,SF-268 CNS,5.36 µM
same,TGI,SF-268 CNS,19.2 µM
same,GI50,IGROV1 ovarian,4.87 µM
same,TGI,IGROV1 ovarian,18.5 µM
same,GI50,A549 NSCLC,3.66 µM
same,TGI,A549 NSCLC,14.2 µM
same,GI50,T-47D breast,7.9 µM
same,TGI,T-47D breast,24.9 µM
same,GI50,SK-OV-3 ovarian,13.3 µM
same,TGI,SK-OV-3 ovarian,30.5 µM
same,GI50,U251 CNS,4.66 µM
same,TGI,U251 CNS,16 µM
same,GI50,BT-549 breast,14.8 µM
same,TGI,BT-549 breast,28.8 µM
same,GI50,MALME-3M melanoma,10.3 µM
same,TGI,MALME-3M melanoma,23.1 µM
same,GI50,HCT-116 colon,3.6 µM
same,TGI,HCT-116 colon,14.4 µM
same,GI50,MDA-MB-435,7.41 µM
same,TGI,MDA-MB-435,20 µM
same,GI50,EKVX NSCLC,7.08 µM
same,TGI,EKVX NSCLC,20.9 µM
same,GI50,CAKI-1 renal,3.78 µM
same,TGI,CAKI-1 renal,17.9 µM
same,GI50,NCI-H460 lung,3.51 µM
same,TGI,NCI-H460 lung,14 µM
same,GI50,SW-620 colon,3.61 µM
same,TGI,SW-620 colon,15.9 µM
same,GI50,M14 melanoma,11.1 µM
same,TGI,M14 melanoma,25.4 µM
same,GI50,HT29 colon,3.42 µM
same,TGI,HT29 colon,13.4 µM
same,GI50,MCF7 breast,3.35 µM
same,TGI,MCF7 breast,13.9 µM
same,GI50,786-0 renal,5.54 µM
same,TGI,786-0 renal,19.1 µM
same,GI50,UACC-257 melanoma,13.4 µM
same,TGI,UACC-257 melanoma,27 µM
same,GI50,SR leukemia,3.18 µM
same,TGI,SR leukemia,14.8 µM
same,GI50,SF-539 CNS,4.87 µM
same,TGI,SF-539 CNS,17.2 µM
same,GI50,OVCAR-5 ovarian,5.36 µM
same,TGI,OVCAR-5 ovarian,18.5 µM
same,GI50,SF-295 CNS,4.09 µM
same,TGI,SF-295 CNS,16.2 µM
same,GI50,COLO 205 colon,3.56 µM
same,TGI,COLO 205 colon,16.7 µM
same,GI50,DU-145 prostate,5.04 µM
same,TGI,DU-145 prostate,16.8 µM
same,GI50,KM12 colon,4.13 µM
same,TGI,KM12 colon,16.8 µM
